Source: US6642392B1 (priority 1997, dated 2003)
Where two headings read alike, the source gives them in different places.

Tests used:
Format in all cases: in vivo
[1] = system: Eiysiphe graminis f. sp. tritici; experiment: Test A: wheat powdery mildew, preventive spray on wheat seedlings; settings: for Test A disease control rating (100 = 100% disease control, 0 = no disease control): wheat seedlings sprayed to run-off, inoculated the following day, rating relative to controls, unmarked compounds (standard test rate); for Test A disease control rating: wheat powdery mildew
In short: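 Preventive test: seedlings inoculated with powdery mildew spores one day after run-off spraying of a suspension. Ratings after 7 days in a 20° C growth chamber express percent disease control versus controls.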

Puccinia recondita = experiment: Test B: wheat leaf rust, preventive spray on wheat seedlings; settings: for Test B disease control rating (100 = 100% disease control, 0 = no disease control): wheat seedlings sprayed to run-off, inoculated the following day, rating relative to controls, unmarked compounds (standard test rate); for Test B disease control rating: wheat leaf rust
In short: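 Preventive test: P. recondita spores were applied one day after a run-off spray of compound suspension on wheat seedlings. Plants had 24 h at 20 °C in saturated air plus 6 days in a 20 °C growth chamber. Scoring is % disease control (100 = full) relative to controls.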

Pyricularia oryzae = settings: for Test C disease control rating (100 = 100% disease control, 0 = no disease control): rice seedlings sprayed to run-off, inoculated the following day, rating relative to controls, unmarked compounds (standard test rate); for Test C disease control rating: rice blast
Phytophthora infestans = settings: for Test D disease control rating (100 = 100% disease control, 0 = no disease control): tomato seedlings sprayed to run-off, inoculated the following day, rating relative to controls, unmarked compounds (standard test rate); for Test D disease control rating: tomato late blight
Botrytis cinerea = experiment: Test E: gray mold, preventive spray on cucumber seedlings; settings: for Test E disease control rating (100 = 100% disease control, 0 = no disease control): cucumber seedlings sprayed to run-off, inoculated the following day, rating relative to controls, unmarked compounds (standard test rate); for Test E disease control rating: gray mold on cucumber
In short: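 Preventive spray on cucumber seedlings used a suspension (3% acetone, 250 ppm Trem 014), applied to run-off one day before inoculation with Botrytis cinerea spores. Plants were held 48 h at 20° C in saturated air, then 5 days at 20° C. Percent disease control was scored relative to untreated plants.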

[2] = 100 = 100% disease control, 0 = no control relative to controls, unmarked entries (standard test concentration)
[3] = 100 = 100% disease control, 0 = no control, unmarked entries (standard test concentration)

| Structure (SMILES) | Test A disease control rating [1, 2] [%] | Test B disease control rating (Puccinia recondita; [3]) [%] | Test C disease control rating (Pyricularia oryzae; [3]) [%] | Test D disease control rating (Phytophthora infestans; [3]) [%] | Test E disease control rating (Botrytis cinerea; [3]) [%] | also measured |
| --- | --- | --- | --- | --- | --- | --- |
| CCC1(C(=O)NC(C)COc2ccc(Cl)c(F)c2)C(C)C1(Cl)Cl (centres unmarked) [compound 231] |  |  |  |  |  | Test A disease control rating (100 = 100% disease control, 0 = no disease control) [1]: 0%; Test B disease control rating (100 = 100% disease control, 0 = no disease control) (Puccinia recondita): 0%; Test C disease control rating (100 = 100% disease control, 0 = no disease control) (Pyricularia oryzae): 97%; Test D disease control rating (100 = 100% disease control, 0 = no disease control) (Phytophthora infestans): 0%; Test E disease control rating (100 = 100% disease control, 0 = no disease control) (Botrytis cinerea): 93% |
| C[C@H](COc1cc(F)ccc1F)NC(=O)C(C#N)C(C)(C)C (single isomer, unassigned) [28a] | 38 | 28 | 100 | 68 | 0 |  |
| CC(C)(C)C(C#N)C(=O)NC/C=C/c1ccccc1 (racemic) [compound 167] | 0 | 0 | 74 | 23 | 0 |  |
| CC(COc1ccc(F)cc1)NC(=O)C(C#N)C(C)(C)C (single isomer, unassigned) [4a] | 0 | 67 | 99 | 66 | 0 |  |
| C[C@H](COc1ccc(Cl)cc1)NC(=O)C(C#N)C(C)(C)C (single isomer, unassigned) [7d] | 62 | 68 | 99 | 0 | 6 |  |
| CC(COc1ccccc1I)NC(=O)C(C#N)C(C)(C)C (mixture of isomers) [11b] | 77 | 85 | 99 | 23 | 0 |  |
| CC(COc1c(F)ccc(F)c1C#N)NC(=O)C(C#N)C(C)(C)C (mixture of isomers) [compound 208] | 0 | 28 | 94 | 45 | 0 |  |
| Cc1c(Cl)cc(C#N)n1OCC(C)NC(=O)C(C#N)C(C)C(C)(C)C (mixture of isomers) [71a] | 0 | 0 | 53 | 19 | 0 |  |
| C[C@H](COc1cc(F)ccc1Cl)NC(=O)C(C#N)C(C)(C)C (single isomer, unassigned) [191b] | 0 | 0 | 100 | 47 | 55 |  |
| CCC1(C(=O)NCC=Cc2cccc(Br)c2)C(C)C1(Cl)Cl (centres unmarked) [compound 160] |  |  |  |  |  | Test A disease control rating ([1]; tested at 40 ppm): 57%; Test B disease control rating (Puccinia recondita; tested at 40 ppm): 86%; Test C disease control rating (Pyricularia oryzae; tested at 40 ppm): 52%; Test D disease control rating (Phytophthora infestans; tested at 40 ppm): 85%; Test E disease control rating (Botrytis cinerea; tested at 40 ppm): 0% |
| CCc1ccccc1OCC(C)NC(=O)C1(CC)C(C)C1(Cl)Cl (centres unmarked) [97b] |  |  |  |  |  | Test A disease control rating ([1]; tested at 40 ppm): 71%; Test B disease control rating (Puccinia recondita; tested at 40 ppm): 0%; Test C disease control rating (Pyricularia oryzae; tested at 40 ppm): 53%; Test D disease control rating (Phytophthora infestans; tested at 40 ppm): 0%; Test E disease control rating (Botrytis cinerea; tested at 40 ppm): 0% |
| CCC1(C(=O)NC(C)COc2c(Cl)cc(F)cc2Cl)C(C)C1(Cl)Cl (centres unmarked) [compound 251] |  |  |  |  |  | Test A disease control rating (100 = 100% disease control, 0 = no disease control) [1]: 0%; Test B disease control rating (100 = 100% disease control, 0 = no disease control) (Puccinia recondita): 0%; Test C disease control rating (100 = 100% disease control, 0 = no disease control) (Pyricularia oryzae): 94%; Test D disease control rating (100 = 100% disease control, 0 = no disease control) (Phytophthora infestans): 0%; Test E disease control rating (100 = 100% disease control, 0 = no disease control) (Botrytis cinerea): 0% |
| CC(COc1c(C#N)cccc1C(F)(F)F)NC(=O)C(C#N)C(C)C(C)(C)C (mixture of isomers) [compound 68] | 62 | 27 | 86 | 82 | 0 |  |
| CCC1(C(=O)NCC(C)=Cc2cc(Cl)ccc2Cl)C(C)C1(Cl)Cl (centres unmarked) [compound 270] |  |  |  |  |  | Test A disease control rating (100 = 100% disease control, 0 = no disease control) [1]: 77%; Test B disease control rating (100 = 100% disease control, 0 = no disease control) (Puccinia recondita): 0%; Test C disease control rating (100 = 100% disease control, 0 = no disease control) (Pyricularia oryzae): 91%; Test D disease control rating (100 = 100% disease control, 0 = no disease control) (Phytophthora infestans): 96%; Test E disease control rating (100 = 100% disease control, 0 = no disease control) (Botrytis cinerea): 0% |
| CC(COc1cc(F)c(F)cc1C#N)NC(=O)C(C#N)C(C)(C)C (mixture of isomers) [compound 207] | 0 | 0 | 0 | 0 | 0 |  |
| CC(C(C#N)C(=O)NCC=Cc1ccccc1F)C(C)(C)C (mixture of isomers) [compound 75] |  |  |  |  |  | Test A disease control rating ([1]; tested at 40 ppm): 0%; Test B disease control rating (Puccinia recondita; tested at 40 ppm): 0%; Test C disease control rating (Pyricularia oryzae; tested at 40 ppm): 52%; Test D disease control rating (Phytophthora infestans; tested at 40 ppm): 19%; Test E disease control rating (Botrytis cinerea; tested at 40 ppm): 0% |
| CCC1(C(=O)NC(C)COc2ccc(Br)cc2)C(C)C1(Cl)Cl (mixture of isomers) [86a] |  |  |  |  |  | Test A disease control rating ([1]; tested at 40 ppm): 0%; Test B disease control rating (Puccinia recondita; tested at 40 ppm): 67%; Test C disease control rating (Pyricularia oryzae; tested at 40 ppm): 0%; Test D disease control rating (Phytophthora infestans; tested at 40 ppm): 0%; Test E disease control rating (Botrytis cinerea; tested at 40 ppm): 0% |
| CC(COc1cc(F)ccc1C#N)NC(=O)C(C#N)C(C)(C)C (mixture of isomers) [compound 41] | 62 | 0 | 97 | 66 | 47 |  |
| CCCc1ccccc1OCC(C)NC(=O)C1(CC)C(C)C1(Cl)Cl (mixture of isomers) [98a] | 0 | 0 | 53 | 24 | 0 |  |
| CCC1(C(=O)NC(C)COc2ccc(F)cc2F)C(C)C1(Cl)Cl (centres unmarked) [compound 106] |  |  |  |  |  | Test A disease control rating ([1]; tested at 40 ppm): 84%; Test B disease control rating (Puccinia recondita; tested at 40 ppm): 0%; Test C disease control rating (Pyricularia oryzae; tested at 40 ppm): 97%; Test D disease control rating (Phytophthora infestans; tested at 40 ppm): 19%; Test E disease control rating (Botrytis cinerea; tested at 40 ppm): 0% |
| C[C@H](COc1ccc(Cl)c(F)c1)NC(=O)C(C#N)C(C)(C)C (single isomer, unassigned) [182a] | 0 | 0 | 0 | 0 | 0 |  |
| C[C@H](COc1ccc(Cl)cc1)NC(=O)C(C#N)C(C)(C)C (single isomer, unassigned) [7c] | 0 | 0 | 86 | 9 | 45 |  |
| CCc1ccccc1OCC(C)NC(=O)C1(CC)C(C)C1(Cl)Cl (mixture of isomers) [97a] |  |  |  |  |  | Test A disease control rating ([1]; tested at 40 ppm): 0%; Test B disease control rating (Puccinia recondita; tested at 40 ppm): 0%; Test C disease control rating (Pyricularia oryzae; tested at 40 ppm): 0%; Test D disease control rating (Phytophthora infestans; tested at 40 ppm): 20%; Test E disease control rating (Botrytis cinerea; tested at 40 ppm): 0% |
| CCC1(C(=O)NC(C)COc2c(Cl)cccc2Cl)C(C)C1(Cl)Cl (centres unmarked) [compound 114] |  |  |  |  |  | Test A disease control rating ([1]; tested at 40 ppm): 83%; Test B disease control rating (Puccinia recondita; tested at 40 ppm): 0%; Test C disease control rating (Pyricularia oryzae; tested at 40 ppm): 0%; Test D disease control rating (Phytophthora infestans; tested at 40 ppm): 0%; Test E disease control rating (Botrytis cinerea; tested at 40 ppm): 0% |
| CCC1(C(=O)NC(C)CCc2ccccc2)C(C)C1(Cl)Cl (mixture of isomers) [compound 244] |  |  |  |  |  | Test A disease control rating (100 = 100% disease control, 0 = no disease control) [1]: 86%; Test B disease control rating (100 = 100% disease control, 0 = no disease control) (Puccinia recondita): 0%; Test C disease control rating (100 = 100% disease control, 0 = no disease control) (Pyricularia oryzae): 99%; Test D disease control rating (100 = 100% disease control, 0 = no disease control) (Phytophthora infestans): 74%; Test E disease control rating (100 = 100% disease control, 0 = no disease control) (Botrytis cinerea): 0% |
| CC(COc1c(Cl)cccc1C#N)NC(=O)C(C#N)C(C)(C)C (mixture of isomers) [compound 210] | 0 | 0 | 91 | 0 | 0 |  |
| C[C@H](COc1cc(F)c(F)cc1F)NC(=O)C(C#N)C(C)(C)C (single isomer, unassigned) [188b] | 0 | 0 | 100 | 35 | 45 |  |
| CC(C)C(C#N)C(=O)NC(C)C(Oc1ccccc1C#N)c1ccccc1 (mixture of isomers) [compound 290] |  |  |  |  |  | Test A disease control rating (100 = 100% disease control, 0 = no disease control) [1]: 59%; Test B disease control rating (100 = 100% disease control, 0 = no disease control) (Puccinia recondita): 0%; Test C disease control rating (100 = 100% disease control, 0 = no disease control) (Pyricularia oryzae): 90%; Test D disease control rating (100 = 100% disease control, 0 = no disease control) (Phytophthora infestans): 0%; Test E disease control rating (100 = 100% disease control, 0 = no disease control) (Botrytis cinerea): 0% |
